{
  "source": "paper PMC6435658",
  "about": "“Investigation into the Molecular Mechanisms underlying the Anti-proliferative and Anti-tumorigenesis activities of Diosmetin against HCT-116 Human Colorectal Cancer” (Scientific Reports, 2019)",
  "key": {"HT-29 cells": {"test_system": "HT-29 cells", "experiment": "MTT cytotoxicity assay, HT-29", "format": "cell-based, human", "conditions": "for IC50: Homo sapiens, MTT", "method": "[Worded in the source for another cell line; this cell line is reported under the same test.] (§1) Cytotoxicity property of Dis against HCT-116 and CCD-841 cells were measured by MTT assay as described by Mossman[77]. Briefly, cells were treated with different concentration of Dis and 5-Fu (positive control) with serial dilution factor of 2 for 8 concentrations in 96 well-plate for different time points (24 h, 48 h and 72 h). Subsequently at the end of each time point 20 µl of MTT (5 mg/ml, Affymetrix,Cleveland, OH, USA) were added to each well followed by 4 h incubation. The solutions were aspirated after 4 h and 100 µl of DMSO were added to each well. Absorbance for each well was read at 570 nm as measured by using microplate reader (Tecan Infinite multimode, Männedorf, Switzerland). Cytotoxicity (cell death) was measured by using the following formula: Celldeath(%)=sampleOD−controlOD/controlOD100\n(§2) This assay was performed in triplicates in three independent experiments. The cytotoxicity property of Dis was presented as IC50 value."}, "CCD-841 cells": {"test_system": "CCD-841 cells", "experiment": "MTT cytotoxicity assay, CCD-841 normal colon cells", "format": "cell-based", "conditions": "Homo sapiens, CCD-841 non cancerous cells", "method": "as §1, §2"}, "HCT-116 cells": {"test_system": "HCT-116 cells", "experiment": "MTT cytotoxicity assay, HCT-116", "format": "cell-based, human", "conditions": "for IC50: Homo sapiens, MTT", "method": "as §1, §2"}},
  "data": [
    {"smiles": "O=c1[nH]cc(F)c(=O)[nH]1", "note": "[5-FU, 5-Fluorouracil, reference compound]", "values": [
      {"measurement": "IC50", "setting": "HT-29 cells; HT-29, 24 h", "value": "10.3 ± 2.7", "unit": "µg/mL"},
      {"measurement": "IC50", "setting": "HT-29 cells; HT-29, 48 h", "value": "10.5 ± 1.3", "unit": "µg/mL"},
      {"measurement": "IC50", "setting": "HT-29 cells; HT-29, 72 h", "value": "2.24 ± 0.53", "unit": "µg/mL"},
      {"measurement": "Selectivity Index (SI)", "setting": "HT-29 cells; IC50 CCD-841 / IC50 HT-29, 24 h", "value": 19.15},
      {"measurement": "Selectivity Index (SI)", "setting": "HT-29 cells; IC50 CCD-841 / IC50 HT-29, 48 h", "value": 2.7},
      {"measurement": "Selectivity Index (SI)", "setting": "HT-29 cells; IC50 CCD-841 / IC50 HT-29, 72 h", "value": 6.46},
      {"measurement": "IC50", "setting": "CCD-841 cells; 24 h", "value": "197 ± 14.7", "unit": "µg/mL"},
      {"measurement": "IC50", "setting": "CCD-841 cells; 48 h", "value": "28.3 ± 0.67", "unit": "µg/mL"},
      {"measurement": "IC50", "setting": "CCD-841 cells; 72 h", "value": "14.5 ± 0.68", "unit": "µg/mL"},
      {"measurement": "IC50", "setting": "HCT-116 cells; HCT-116, 24 h", "value": "5.43 ± 0.48", "unit": "µg/mL"},
      {"measurement": "IC50", "setting": "HCT-116 cells; HCT-116, 48 h", "value": "3.07 ± 0.34", "unit": "µg/mL"},
      {"measurement": "IC50", "setting": "HCT-116 cells; HCT-116, 72 h", "value": "1.47 ± 0.4", "unit": "µg/mL"},
      {"measurement": "Selectivity Index (SI)", "setting": "HCT-116 cells; IC50 CCD-841 / IC50 HCT-116, 24 h", "value": 36.27},
      {"measurement": "Selectivity Index (SI)", "setting": "HCT-116 cells; IC50 CCD-841 / IC50 HCT-116, 48 h", "value": 9.23},
      {"measurement": "Selectivity Index (SI)", "setting": "HCT-116 cells; IC50 CCD-841 / IC50 HCT-116, 72 h", "value": 9.85}
    ]}
  ]
}
